Experimental data published in PubChem BioAssay (NCI).
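Each compound was tested at five concentrations against cells in 96-well plates for 48 hours. GI50 = concentration required for 50% inhibition of growth. TGI: concentration producing complete growth inhibition.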

What was measured:
Assay in all cases: inhibition of tumour cell growth, NCI panel, 48 h
SNB-19 CNS = test system: SNB-19 CNS
HOP-92 NSCLC = test system: HOP-92 NSCLC
SF-295 CNS = test system: SF-295 CNS
SN12C renal = test system: SN12C renal
NCI-H522 lung = test system: NCI-H522 lung
NCI-H226 lung = test system: NCI-H226 lung
DU-145 prostate = test system: DU-145 prostate
MOLT-4 leukemia = test system: MOLT-4 leukemia
OVCAR-4 ovarian = test system: OVCAR-4 ovarian
MCF7 breast = test system: MCF7 breast
TK-10 renal = test system: TK-10 renal
NCI/ADR-RES ovarian = test system: NCI/ADR-RES ovarian
HS 578T breast = test system: HS 578T breast
COLO 205 colon = test system: COLO 205 colon
UACC-257 melanoma = test system: UACC-257 melanoma
CAKI-1 renal = test system: CAKI-1 renal
SK-MEL-2 melanoma = test system: SK-MEL-2 melanoma
SF-268 CNS = test system: SF-268 CNS
MDA-MB-435 = test system: MDA-MB-435
SF-539 CNS = test system: SF-539 CNS
ACHN renal = test system: ACHN renal
OVCAR-3 ovarian = test system: OVCAR-3 ovarian
SNB-75 CNS = test system: SNB-75 CNS
IGROV1 ovarian = test system: IGROV1 ovarian
HCT-116 colon = test system: HCT-116 colon
786-0 renal = test system: 786-0 renal
PC-3 prostate = test system: PC-3 prostate
SK-OV-3 ovarian = test system: SK-OV-3 ovarian
CCRF-CEM leukemia = test system: CCRF-CEM leukemia

Question: With `Cc1ccc2nc3ccccc3c(NCc3ccccc3)c2c1` as the compound, how does the GI50 (SNB-19 CNS) read?
Answer: Its GI50 is 4.01 µM.

Question: What about the TGI (SNB-19 CNS) of the same compound?
Answer: Its TGI is 11 µM.

Question: What about the GI50 (HOP-92 NSCLC) of the same compound?
Answer: Its GI50 is 1.34 µM.

Question: What about the TGI (HOP-92 NSCLC) of the same compound?
Answer: The TGI was 7.56 µM.

Question: And the GI50 (SF-295 CNS)?
Answer: The GI50 was 2.28 µM.

Question: What about the TGI (SF-295 CNS) of the same compound?
Answer: Its TGI is 8.58 µM.

Question: What about the GI50 (SN12C renal) of the same compound?
Answer: The GI50 was 2.41 µM.

Question: What about the TGI (SN12C renal) of the same compound?
Answer: The TGI was 9.15 µM.

Question: And the GI50 (NCI-H522 lung)?
Answer: Its GI50 is 2.72 µM.

Question: And the TGI (NCI-H522 lung)?
Answer: The TGI was 12.6 µM.

Question: What about the GI50 (NCI-H226 lung) of the same compound?
Answer: Its GI50 is 3.59 µM.

Question: What about the TGI (NCI-H226 lung) of the same compound?
Answer: The TGI was 12 µM.

Question: What about the GI50 (DU-145 prostate) of the same compound?
Answer: The GI50 was 2.56 µM.

Question: And the TGI (DU-145 prostate)?
Answer: Its TGI is 8.83 µM.

Question: What about the GI50 (MOLT-4 leukemia) of the same compound?
Answer: The GI50 was 1.5 µM.

Question: What about the TGI (MOLT-4 leukemia) of the same compound?
Answer: The TGI was 8.73 µM.

Question: What about the GI50 (OVCAR-4 ovarian) of the same compound?
Answer: Its GI50 is 2.64 µM.

Question: And the TGI (OVCAR-4 ovarian)?
Answer: Its TGI is 9.42 µM.

Question: And the GI50 (MCF7 breast)?
Answer: The GI50 was 1.8 µM.

Question: And the TGI (MCF7 breast)?
Answer: The TGI was 7.93 µM.

Question: What about the GI50 (TK-10 renal) of the same compound?
Answer: Its GI50 is 6.43 µM.

Question: What about the TGI (TK-10 renal) of the same compound?
Answer: Its TGI is 13.9 µM.

Question: And the GI50 (NCI/ADR-RES ovarian)?
Answer: Its GI50 is 2.46 µM.

Question: And the TGI (NCI/ADR-RES ovarian)?
Answer: Its TGI is 10.6 µM.

Question: And the GI50 (HS 578T breast)?
Answer: The GI50 was 5.14 µM.

Question: And the TGI (HS 578T breast)?
Answer: The TGI was 15.4 µM.

Question: And the GI50 (COLO 205 colon)?
Answer: Its GI50 is 1.47 µM.

Question: And the TGI (COLO 205 colon)?
Answer: The TGI was 6.46 µM.

Question: And the GI50 (UACC-257 melanoma)?
Answer: The GI50 was 7.77 µM.

Question: And the TGI (UACC-257 melanoma)?
Answer: The TGI was 17.8 µM.

Question: What about the GI50 (CAKI-1 renal) of the same compound?
Answer: The GI50 was 2.39 µM.

Question: What about the TGI (CAKI-1 renal) of the same compound?
Answer: The TGI was 9.26 µM.

Question: What about the GI50 (SK-MEL-2 melanoma) of the same compound?
Answer: The GI50 was 7.79 µM.

Question: And the TGI (SK-MEL-2 melanoma)?
Answer: Its TGI is 16 µM.

Question: What about the GI50 (SF-268 CNS) of the same compound?
Answer: The GI50 was 3.83 µM.

Question: What about the TGI (SF-268 CNS) of the same compound?
Answer: The TGI was 10.6 µM.

Question: And the GI50 (MDA-MB-435)?
Answer: The GI50 was 4.72 µM.

Question: What about the TGI (MDA-MB-435) of the same compound?
Answer: The TGI was 10.8 µM.

Question: And the GI50 (SF-539 CNS)?
Answer: Its GI50 is 2.43 µM.

Question: And the TGI (SF-539 CNS)?
Answer: Its TGI is 9.07 µM.

Question: And the GI50 (ACHN renal)?
Answer: The GI50 was 2.39 µM.

Question: And the TGI (ACHN renal)?
Answer: The TGI was 8.88 µM.

Question: And the GI50 (OVCAR-3 ovarian)?
Answer: The GI50 was 3.09 µM.

Question: What about the TGI (OVCAR-3 ovarian) of the same compound?
Answer: Its TGI is 9.97 µM.

Question: What about the GI50 (SNB-75 CNS) of the same compound?
Answer: The GI50 was 5.68 µM.

Question: What about the TGI (SNB-75 CNS) of the same compound?
Answer: The TGI was 11.9 µM.

Question: And the GI50 (IGROV1 ovarian)?
Answer: The GI50 was 2.01 µM.

Question: What about the TGI (IGROV1 ovarian) of the same compound?
Answer: The TGI was 9.2 µM.

Question: And the GI50 (HCT-116 colon)?
Answer: The GI50 was 1.44 µM.

Question: What about the TGI (HCT-116 colon) of the same compound?
Answer: The TGI was 6.62 µM.

Question: And the GI50 (786-0 renal)?
Answer: Its GI50 is 2.24 µM.

Question: And the TGI (786-0 renal)?
Answer: Its TGI is 8.37 µM.

Question: What about the GI50 (PC-3 prostate) of the same compound?
Answer: Its GI50 is 1.94 µM.

Question: What about the TGI (PC-3 prostate) of the same compound?
Answer: Its TGI is 9.38 µM.

Question: What about the GI50 (SK-OV-3 ovarian) of the same compound?
Answer: Its GI50 is 6.05 µM.

Question: What about the TGI (SK-OV-3 ovarian) of the same compound?
Answer: The TGI was 12.9 µM.

Question: What about the GI50 (CCRF-CEM leukemia) of the same compound?
Answer: Its GI50 is 2.12 µM.

Question: And the TGI (CCRF-CEM leukemia)?
Answer: The TGI was 50 µM.
